Assay results: ChEMBL document CHEMBL3352757, “Mono- and di-halogenated histamine, histidine and carnosine derivatives are potent carbonic anhydrase I, II, VII, XII and XIV activators” (Bioorg Med Chem, 2014)

Experiments:
[1] = molecular target: Carbonic anhydrase 2 (Homo sapiens) (UniProt P00918); test: Activation of […] human carbonic anhydrase-2 incubated for 15 mins prior to testing by stopped-flow CO2 hydrase assay
[2] = molecular target: Carbonic anhydrase 14 (Homo sapiens) (UniProt Q9ULX7); test: Activation of transmembrane human carbonic anhydrase-14 incubated for 15 mins prior to testing by stopped-flow CO2 hydrase assay
[3] = molecular target: Carbonic anhydrase 1 (Homo sapiens) (UniProt P00915); test: Activation of […] human carbonic anhydrase-1 incubated for 15 mins prior to testing by stopped-flow CO2 hydrase assay
[4] = molecular target: Carbonic anhydrase 7 (Homo sapiens) (UniProt P43166); test: Activation of […] human carbonic anhydrase-7 incubated for 15 mins prior to testing by stopped-flow CO2 hydrase assay
[5] = molecular target: Carbonic anhydrase 12 (Homo sapiens) (UniProt O43570); test: Activation of transmembrane human carbonic anhydrase-12 incubated for 15 mins prior to testing by stopped-flow CO2 hydrase assay
Sequence of Carbonic anhydrase 12 (Homo sapiens) (O43570 whole entry): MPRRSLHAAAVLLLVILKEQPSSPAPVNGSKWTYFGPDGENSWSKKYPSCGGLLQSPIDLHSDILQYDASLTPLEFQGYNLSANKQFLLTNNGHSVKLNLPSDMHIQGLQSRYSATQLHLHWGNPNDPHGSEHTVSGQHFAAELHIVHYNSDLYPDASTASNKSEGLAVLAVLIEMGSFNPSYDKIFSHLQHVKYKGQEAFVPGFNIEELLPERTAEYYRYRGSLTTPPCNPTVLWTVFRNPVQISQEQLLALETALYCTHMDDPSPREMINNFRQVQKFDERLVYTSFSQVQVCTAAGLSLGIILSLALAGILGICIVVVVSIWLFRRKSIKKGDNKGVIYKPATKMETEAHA

Sequence of Carbonic anhydrase 7 (Homo sapiens) (P43166 whole entry): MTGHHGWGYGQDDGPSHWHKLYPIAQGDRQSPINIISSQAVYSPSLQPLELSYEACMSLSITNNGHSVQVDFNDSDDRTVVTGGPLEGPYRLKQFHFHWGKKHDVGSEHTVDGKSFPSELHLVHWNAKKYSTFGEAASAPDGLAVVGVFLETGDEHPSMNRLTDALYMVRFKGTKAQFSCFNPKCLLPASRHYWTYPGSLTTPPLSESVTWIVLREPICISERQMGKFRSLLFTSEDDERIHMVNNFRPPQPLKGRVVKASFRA
Sequence of Carbonic anhydrase 14 (Homo sapiens) (Q9ULX7 whole entry): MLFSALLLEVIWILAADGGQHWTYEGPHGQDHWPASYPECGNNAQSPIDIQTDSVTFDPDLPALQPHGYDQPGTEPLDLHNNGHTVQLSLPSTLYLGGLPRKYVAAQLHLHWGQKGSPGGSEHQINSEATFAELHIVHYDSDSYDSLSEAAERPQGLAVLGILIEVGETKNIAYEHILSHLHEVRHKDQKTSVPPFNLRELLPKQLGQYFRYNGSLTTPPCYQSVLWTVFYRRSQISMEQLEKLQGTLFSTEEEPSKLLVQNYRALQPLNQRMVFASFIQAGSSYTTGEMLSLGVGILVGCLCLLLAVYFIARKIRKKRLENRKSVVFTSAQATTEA
Sequence of Carbonic anhydrase 1 (Homo sapiens) (P00915 2-261 limits assumed): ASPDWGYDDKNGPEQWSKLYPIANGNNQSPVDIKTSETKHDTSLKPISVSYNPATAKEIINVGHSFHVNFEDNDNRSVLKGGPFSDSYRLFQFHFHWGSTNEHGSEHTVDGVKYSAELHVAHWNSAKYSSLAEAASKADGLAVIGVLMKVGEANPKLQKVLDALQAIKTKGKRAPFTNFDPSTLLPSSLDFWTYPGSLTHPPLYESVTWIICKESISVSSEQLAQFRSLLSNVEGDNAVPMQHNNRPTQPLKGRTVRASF

KA [1] [µM] | KA [2] [µM] | KA [3] [µM] | KA [4] [µM] | KA [5] [µM] | Structure (SMILES)
13.6 | 30.9 | 29.3 | 21.5 | 44.3 | CC(C)(C)OC(=O)NCCc1nc[nH]c1I
1.12 | 24.3 | 0.96 | 3.6 | 10.9 | COC(=O)[C@@H](N)Cc1nc(I)[nH]c1I
50.2 | 45.2 | 5.4 | 24.9 | 18.8 | CC(C)(C)OC(=O)NCCc1nc[nH]c1Cl
34.8 | 40.8 | 21.5 | 4 | 31.6 | COC(=O)[C@H](Cc1nc(Br)[nH]c1Br)NC(=O)CCNC(=O)OC(C)(C)C
26.5 | 0.92 | 7.3 | 40.2 | 10.7 | COC(=O)[C@H](Cc1nc[nH]c1Br)NC(=O)OC(C)(C)C
0.97 | 36.5 | 2.6 | 5.2 | 24.9 | COC(=O)[C@H](Cc1nc[nH]c1Br)NC(=O)CCNC(=O)OC(C)(C)C
10.9 | 10.3 | 22.5 | 0.01 | 0.072 | COC(=O)[C@H](Cc1nc(Cl)[nH]c1Cl)NC(=O)CCN
28.5 | 29.5 | 13.3 | 28.3 | 37.4 | CC(C)(C)OC(=O)NCCc1nc(Br)[nH]c1Br
36.7 | 37.1 | 12.1 | 45.6 | 35 | CC(C)(C)OC(=O)NCCc1nc(I)[nH]c1I
0.013 | 34.9 | 0.0015 | 10.3 | 64.7 | COC(=O)[C@H](Cc1nc(I)[nH]c1I)NC(=O)OC(C)(C)C
0.32 | 7.8 | 0.0012 | 6.2 | 14.3 | COC(=O)[C@@H](N)Cc1nc[nH]c1I
2.9 | 20.1 | 21.4 | 3.5 | 10.5 | COC(=O)[C@H](Cc1nc(I)[nH]c1I)NC(=O)CCN
1.08 | 22.1 | 1.4 | 9.7 | 0.83 | COC(=O)[C@@H](N)Cc1nc(Br)[nH]c1Br
10.4 | 5.2 | 13.6 | 12.3 | 1.01 | COC(=O)[C@@H](N)Cc1nc[nH]c1Br
1.78 | 28.4 | 2.1 | 1.02 | 30.7 | COC(=O)[C@H](Cc1nc[nH]c1Br)NC(=O)CCN
13.1 | 6.4 | 21.3 | 36.1 | 0.078 | COC(=O)[C@@H](N)Cc1nc[nH]c1Cl

KA [1] [µM] | KA [2] [µM] | KA [3] [µM] | KA [4] [µM] | KA [5] [µM] | Structure (SMILES)
32 | 0.71 | 10.9 | 0.84 | 0.96 | COC(=O)[C@H](Cc1c[nH]cn1)NC(=O)CCN
5.2 | 24.6 | 4.3 | 0.81 | 28.7 | COC(=O)[C@H](Cc1nc[nH]c1I)NC(=O)CCNC(=O)OC(C)(C)C
8.2 | 52.7 | 18.7 | 0.74 | 40.5 | COC(=O)[C@H](Cc1nc(I)[nH]c1I)NC(=O)CCNC(=O)OC(C)(C)C
10.4 | 0.93 | 0.02 | 0.88 | 0.91 | COC(=O)[C@@H](N)Cc1c[nH]cn1
40.3 | 1.4 | 2.45 | 50.7 | 25.3 | COC(=O)[C@H](Cc1nc(Cl)[nH]c1Cl)NC(=O)OC(C)(C)C
10.5 | 20.6 | 31.2 | 24.9 | 27.1 | COC(=O)[C@@H](N)Cc1nc(Cl)[nH]c1Cl
0.012 | 13.5 | 0.0009 | 38.5 | 6.1 | COC(=O)[C@H](Cc1nc[nH]c1I)NC(=O)OC(C)(C)C
1.6 | 39.2 | 7.6 | 1.06 | 40.1 | COC(=O)[C@H](Cc1nc[nH]c1I)NC(=O)CCN
48.5 | 7.9 | 34.3 | 12.1 | 2.5 | COC(=O)[C@H](Cc1nc[nH]c1Cl)NC(=O)CCNC(=O)OC(C)(C)C
4.1 | 18.9 | 30.7 | 0.0081 | 1.84 | COC(=O)[C@H](Cc1nc(Br)[nH]c1Br)NC(=O)CCN
29 | 24.1 | 10.1 | 47.6 | 42.5 | COC(=O)[C@H](Cc1nc[nH]c1Cl)NC(=O)OC(C)(C)C
18.6 | 33.5 | 10.1 | 0.12 | 9.7 | COC(=O)[C@H](Cc1nc(Cl)[nH]c1Cl)NC(=O)CCNC(=O)OC(C)(C)C
44.5 | 34.7 | 7.1 | 10.4 | 52.8 | CC(C)(C)OC(=O)NCCc1nc[nH]c1Br
24.8 | 28.1 | 16.5 | 13.1 | 40.2 | CC(C)(C)OC(=O)NCCc1nc(Cl)[nH]c1Cl
30.9 | 15.3 | 1.25 | 0.013 | 21.5 | COC(=O)[C@H](Cc1nc[nH]c1Cl)NC(=O)CCN
0.96 | 3.51 | 0.032 | 13.1 | 1.62 | COC(=O)[C@H](Cc1nc(Br)[nH]c1Br)NC(=O)OC(C)(C)C

Structure (SMILES) | KA [1] [µM] | KA [2] [µM] | KA [3] [µM] | KA [4] [µM] | KA [5] [µM]
NCCc1nc(Br)[nH]c1Br | 0.008 | 13.1 | 0.012 | 0.74 | 25.2
NCCc1nc(I)[nH]c1I | 0.001 | 15.5 | 0.0007 | 1.39 | 34.6
NCCc1nc[nH]c1Cl | 0.115 | 38.7 | 0.021 | 15.3 | 12.1
NCCc1nc[nH]c1I | 0.065 | 7.1 | 0.0009 | 7.6 | 0.9
NCCc1nc(Cl)[nH]c1Cl | 0.032 | 38.9 | 0.018 | 0.041 | 5.7
NCCc1nc[nH]c1Br | 0.096 | 16.2 | 0.015 | 5.2 | 3.2
